From US20230107216A1, “PANTETHEINE DERIVATIVES AND USES THEREOF” (Comet Therapeutics, Inc., priority 2018, published 2023)
Where two headings read alike, the source gives them in different places.

How the values were obtained:
[1] = test system: Propionic Acidemia (PA) primary fibroblasts GM00371; assay: Mitochondrial respiration, XFe96 Extracellular Flux Analyzer (OCR/ECAR), PA fibroblasts GM00371; format: cell-based; conditions: Homo sapiens, Fibroblast, 50 μM, read-out: Increase in Maximal Respiratory Capacity AUC
[2] = test system: Methylmalonic Acidemia (MMA) primary fibroblasts GM01673; assay: Mitochondrial respiration, XFe96 Extracellular Flux Analyzer (OCR/ECAR), MMA fibroblasts GM01673; format: cell-based; conditions: Homo sapiens, Fibroblast
Experimental: The effect of the compounds of the present disclosure on mitochondrial respiration was measured with a XFe96 Extracellular Flux Analyzer (Seahorse Bioscience, Agilent Technologies) and Oxygen consumption Rate (OCR) and Extracellular acidification rate (ECAR) determined.
Cell culture and treatments. Primary adherent fibroblasts were cultured in minimum essential medium (MEM) (Gibco, 25030081) supplemented with 2 mM L-Glutamine (Gibco, 25030081), 15% fetal bovine serum (FBS) (Gibco, 26400044) and 1% penicillin/streptomycin (Gibco, 5140122) at 37° C. and 5% CO2. Cells were collected for either passaging or experiment at ˜70-80% confluence. Cells were obtained by trypsinization and seeded at 20000 cells/well in cell culture microplates (Seahorse Bioscience, 101085-004) and allowed to adhere for 16 hours in culture media.
By profiling different primary cells and/or optimizing their culture media or environmental components one can select cell lines and/or conditions that are appropriate for the biological or disease model. In the present example, 24 hours prior to OCR and ECAR profiling, media was changed to Dulbecco's Modified Eagle Medium (DMEM, Agilent Seahorse 103575-100) with the appropriate supplements for the different primary cells (10 mM glucose, 2 mM L-glutamine, 1 mM pyruvate, 10% FBS; 1 mM glucose, 2 mM L-glutamine, 1 mM pyruvate, 10% FBS; 10 mM glucose, 10% FBS; 5 mM glucose 10% FBS; 1 mM glucose 10% FBS). Cells used in this example were: Propionic Acidemia (PA) (GM00371, GM03590 Coriell Institute for Medical Research, Tsi 6337, Tsi 4626, Tsi 3618 Trans-Hit Bio), Methylmalonic Acidemia (MMA) (GM01673, Coriell Institute for Medical Research, Tsi 5224 Trans-Hit Bio), Branched chain ketoacid dehydrogenase kinase (BCKDK) (GM00612, GM00649 Coriell Institute for Medical Research), Subnormal activation of pyruvate dehydrogenase complex (PDH) (GM01503 Coriell Institute for Medical Research), Very long-chain acyl-CoA dehydrogenase (VLCAD) (GM17475), Leigh Syndrome (LS) (GM03672, GM13411 Coriell Institute for Medical Research), Pyruvate Carboxylase Deficiency (PC) (GM00444 Coriell Institute for Medical Research), Glutaric Acidemia-I (GA) (GM10653), Friedreich's Ataxia (FXN) (GM04078 Coriell Institute for Medical Research, Huntington's disease (HD) (GM21756 Coriell Institute for Medical Research), Ornithine Transcarbamylase Deficiency (OTC) (GM12756 Coriell Institute for Medical Research), Kearns-Sayre Syndrome (KSS) (GM06225 Coriell Institute for Medical Research).
One hour before the assay, the cells were washed with freshly prepared unbuffered serum free-Seahorse XF Assay medium (Seahorse Bioscience, North America, USA, 103575-100) with the same supplements as for the previous 24 hour incubation.
After baseline measurements of OCR, cells were challenged with compounds of the present disclosure at different concentrations (10 to 50 μM) or vehicle (DMSO, 0.1%) and a post-compound baseline was recorded. OCR was measured after sequentially adding to each well 1 μg/ml oligomycin (inhibitor of ATP synthase Sigma-Aldrich, 753531), then maximal OCR was determined with carbonyl cyanide 4-(trifluoromethoxy) phenylhydrazone (FCCP, Sigma-Aldrich, C2920), (uncoupler of oxidative phosphorylation) and 0.5 μM of rotenone (Sigma-Aldrich, R8875) plus antimycin A (Sigma-Aldrich, A8674) (inhibitors of mitochondrial complex I and III) for determination of rotenone-antimycin insensitive respiration together with Hoechst for nuclear staining in situ when normalized to cell counts. After the analysis and nuclear staining, the XFp microplate was transferred to the Cytation 5, and the nuclear images were captured, the individual nuclei were identified and counted by BioTek Gen5 software. Data were expressed as pmol of O2 per minute and normalized by nuclear staining and baselined to pre-compound addition.
Assay conditions were as stated below.
Assay specifics on assay conditions are indicated below when readouts were normalized to cell counts. […]

[3] = test system: Venular Endothelial cells (HUVEC) (4H system); assay: BioMAP 4H system (IL-4 and histamine); format: cell-based, human; conditions: Homo sapiens, HUVEC, 24 h; 1 uM; procedure of Example 826; read-out: % decrease in E-Selectin
[4] = test system: Bronchial epithelial cells co-cultured with dermal fibroblast (BF4T system); assay: BioMAP BF4T system (TNFα and IL-4); format: cell-based, human; conditions: Homo sapiens, 24 h; 10 uM; procedure of Example 830; read-out: % increase in VCAM-1
[5] = test system: Bronchial epithelial cells (BE3C system); assay: BioMAP BE3C system (IL-1β, TNFα, IFNγ); format: cell-based, human; conditions: Homo sapiens, Epithelial cell, 24 h; 10 uM; procedure of Example 831; read-out: % decrease in MMP-1
[6] = test system: Peripheral blood mononuclear cells co-cultured with B-cells (BT system); assay: cells; conditions: Homo sapiens, 72 h, read-out: % increase in sIL-6
[7] = test system: primary culture of rat embryo mesencephalic cells (microglia, astrocytes and neurons) exposed to LPS; assay: Neuroprotective effect on damage induced by LPS on culture of mesencephalic neurons (NO, TNF-α, IL-1β, TH positive neurons); format: cell-based; conditions: 50 uM, after 5 days of LPS exposure; for inhibition at 50 µM: Rattus norvegicus, Neuron, 120 h, read-out: % reversion of TH positive neurons
Experimental: Drug preparation. […] The stock solutions will be prepared 1000× the concentration in 100% DMSO. The final concentration of the vehicle (DMSO) is set at 0.1%.
Test animals. Pregnant Wistar rats (Janvier; France) are used for the study. They are group-housed and maintained in a room with controlled temperature (21-22° C.) and a reversed light-dark cycle (12h/12h; lights on: 17:30-05:30; lights off: 05:30-17:30) with food and water available ad libitum.
The protocol is performed in 3 independent cultures. For each culture, each condition is performed in sextuplicate.
Female rat of 15 days gestation is killed by cervical dislocation. Fetuses are removed from the uterus and their brains are harvested and placed in ice-cold medium (Leibovitz's L15 medium, Gibco). Only ventral mesencephalic flexure is used for the cell preparations. The midbrain is dissociated by trypsinization. The reaction is stopped, and the suspension is triturated and centrifuged. The pellet of dissociated cells is resuspended in culture medium consisted of DMEM-F12 (Gibco), containing 10% FBS (ATCC), 10% Horse serum (Gibco) and 2 mM L-glutamine (Gibco). Viable cells are counted and seeded on 96-well plates, precoated with poly-L-lysine. Cells are maintained in a humidified incubator at 37° C. in 5% CO2-95% air atmosphere. Half of the medium is changed on day 2 and day 5.
Treatment. On day 7, culture media are removed and replaced by new medium consisting of DMEM-F12 (Gibco) supplemented with 2% FBS (ATCC), 2% Horse serum (Gibco) and 2 mM L-glutamine (Gibco) and containing vehicle or test substances. After 1-hour exposure, LPS at 10 ng/ml is added and exposure further continued for 24 hours or 5 days period.
Inflammatory response measurement and neuronal death evaluation. NO production is measured in the media 24h and 5 days after LPS exposure using the Griess reagent kit (Molecular Probes). The Griess reagent Assay is a colorimetric reaction assay which measures the conversion of a sulfanilic salt into an azo dye product by nitrite. Visible wavelength absorbance data is collected using a 96-well plate reader at 570 nm (Multiskan EX, Thermo Fisher, France). IL-1β and TNF-α release are measured in the media 24h after LPS exposure using the ELISA development kit (PeproTech). The ELISA plate, previously coated with anti-IL-1β or anti-TNF-αantibody at 1 μg/ml, is incubated 1h with PBS containing 1% of BSA (bovine serum albumin). After washing four times with PBS containing 0.05% of Tween-20, the plate is successively incubated 2h with supernatant, 2h with biotinylated antibody at 0.5 μg/ml in PBS containing 0.1% of BSA and 0.05% of Tween-20, 45 min with Avidin-HRP conjugated at 1/2000 and 30 min with color ABTS substrate (Sigma). Visible wavelength absorbance data is collected using a 96-well plate reader at 405 nm with wavelength correction set at 650 nm (Multiskan EX, Thermo Fisher, France).
Immunodetection of tyrosine hydroxylase positive neurons. On day 12 (5 days after LPS exposure), cultures are fixed 30 min at 4° C. with paraformaldehyde in PBS (4%, Sigma). Then, cells are successively permeabilized with 0.1% Triton X100 for 30 min, saturated with PBS containing 3% of BSA (bovine serum albumin) and are incubated 2h with anti-tyrosine hydroxylase antibody (Sigma, 1:10000; clone TH-2) at 1/10 000 in PBS containing 0.5% of BSA. Cells are washed three times with PBS containing 0.5% of BSA, and they are incubated 1h with goat anti mouse antibody coupled with AF488 (Invitrogen A11001) diluted at 1/1000 in PBS containing 0.5% of BSA. Finally, nuclei are stained with DAPI at 1/1000 in PBS containing 0.5% of BSA. After rinsing with PBS, the plate is visualized and examined with Cell Insight HCS (Thermo Scientific) to determine the number of tyrosine hydroxylase positive cells per well.
Statistical Analysis. The drug-induced effect on NO and cytokines is calculated by setting the response of the LPS-stimulated control as 100%. […]

[8] = test system: Peripheral blood mononuclear cells co-cultured with B-cells (BT system)
[9] = test system: Peripheral blood mononuclear cells co-cultured with venular endothelial cells (HUVEC) (LPS system); assay: BioMAP LPS system; format: cell-based, human; conditions: Homo sapiens, HUVEC, 24 h, procedure of Example 827
[10] = test system: HepG2 cells; assay: Glucose uptake (Glucose Uptake-Glo); format: cell-based; conditions: Homo sapiens, 50 uM, read-out: % increase in Glucose Uptake
[11] = test system: Dermal fibroblasts (HDF3CGF system); assay: BioMAP HDF3CGF system (IL-1β, TNFα, IFNγ, EGF, bFGF, PDGF-BB); format: cell-based, human; conditions: 10 uM
[12] = test system: primary fibroblasts (healthy controls and PA, MMA, BCKDK, PDH, VLCAD, LS, PC, GA, VLCFA, KSS, FXN, HD); assay: Measurement of ROS (H2DCFDA) in primary fibroblasts; format: cell-based, human; conditions: Homo sapiens, Fibroblast, PC GM00444, procedure Example 812, Assay Condition C
Procedure, shortened: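 Patient and healthy-control primary fibroblasts switched to supplemented DMEM 24 h before assay, then treated with compound (10 μM) plus H2DCFDA (22 μM) for 2 h (PA, MMA lines) or 24 h (other lines). Kinetic fluorescence at 492/527 nm over 60 min; only live cells analysed.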

[13] = assay condition A (10 mM glucose, 2 mM L-glutamine, 1 mM pyruvate, 10% FBS), read-out: Increase in Maximal Respiratory Capacity AUC

## COC(=O)CC(SCCNC(=O)CCNC(=O)[C@H](O)C(C)(C)COC(=O)CN)C(=O)OC (stereo partly shown) [Compound 172]
[1]; assay condition A (10 mM glucose, 2 mM L-glutamine, 1 mM pyruvate, 10% FBS)
  activation at 50 µM: ≥ 10%
[2]; [13]
  activation at 10 µM: ≥ 10%
[2]; assay condition D (1 mM glucose, 10% FBS), read-out: Increase in Maximal Respiratory Capacity AUC
  activation at 10 µM: ≥ 10%

## CC(=O)CC(=O)SCCNC(=O)CCNC(=O)[C@H](O)C(C)(C)COC(=O)O[C@H](CC(=O)[O-])C[N+](C)(C)C [Compound 185, (3R,9R)-9-hydroxy-8,8-dimethyl-5,10,14,19,21-pentaoxo-3-((trimethylammonio)methyl)-4,6-dioxa-18-thia-11,15-diazadocosanoate]
[1]; assay condition C (10 mM glucose, 10% FBS)
  activation at 50 µM: ≥ 10%
[3]
  inhibition at 1 µM: ≥ 10%
[4]
  activation at 10 µM: ≥ 10%
[5]
  inhibition at 10 µM: ≥ 10%
[6]
  activation at 1 µM: ≥ 10%
[7]
  % decrease in NO release relative to LPS alone: ≥20%
[7]; list at threshold 15%
  inhibition at 50 µM: ≥ 15%
[7]; list at threshold 50%
  inhibition at 50 µM: ≥ 50%
[8]; 1 uM, procedure of Example 829
  % increase in B-cell Proliferation: ≥10%
[8]; human, 72 h, 1 µM
  % increase in PBMC cytotoxicity: ≥10%
[9]; 1 uM, read-out: % decrease in sPGE2
  inhibition at 1 µM: ≥ 10%
[9]; 10 uM, read-out: % decrease in IL-1α
  inhibition at 10 µM: ≥ 10%
[9]; 10 uM, read-out: % increase in sTNFα
  activation at 10 µM: ≥ 10%
[10]
  activation at 50 µM: ≥ 30%
[11]
  % increase in SRB: ≥10%
[11]; Homo sapiens, Fibroblast, 72 h, read-out: % increase in 72 Hour Proliferation
  activation at 10 µM: ≥ 10%

## CC(C)(CO)[C@@H](O)C(=O)NCCC(=O)NCCSC(=O)CC[C@H](N)C(=O)O [Compound 385, (S)-2-amino-5-((2-(3-((R)-2,4-dihydroxy-3,3-dimethylbutanamido)propanamido)ethyl)thio)-5-oxopentanoic acid]
[12]; read-out: Decreased ROS by at least 10%
  inhibition at 10 µM: ≥ 10%
[12]; read-out: Decreased ROS by at least 30%
  inhibition at 10 µM: ≥ 30%
[1]; assay condition D (1 mM glucose, 10% FBS)
  activation at 50 µM: ≥ 10%
[2]; assay condition A (10 mM glucose, 2 mM L-glutamine, 1 mM pyruvate, 10% FBS), read-out: Increase in Spare Capacity AUC
  activation at 10 µM: ≥ 10%

## CC(=O)N[C@@H](CC(=O)CC(=O)SCCNC(=O)CCNC(=O)[C@H](O)C(C)(C)CO)C(=O)O [Compound 447]
[2]; [13]
  activation at 50 µM: ≥ 10%

## CC(C)(CO)[C@@H](O)C(=O)NCCC(=O)NCCSC(=O)CC(=O)N[C@@H](CCCCN)C(=O)O [Compound 485]
[2]; [13]
  activation at 50 µM: ≥ 10%
